In article PMC4326489, “Efficacy and pharmacokinetic evaluation of a novel anti-malarial compound (NP046) in a mouse model” (Malaria Journal, 2015):
Where “and” joins values, the source holds several entries; their conditions need not be identical. Identical values can stand only once. Like-named read-outs stand apart in the source and are kept apart here.

What was measured:
[1] = In vivo PK evaluation in mice (blood, LC-MS/MS, non-compartmental analysis); parameters: species or system male C57BL/6 mice; conditions: for concentration at 7 h: read-out: mean blood concentration at seven hours after dosing
Method: The in vivo PK properties of NP046 were evaluated following oral (50 and 10 mg/kg) and IV (5 mg/kg) administration of the compound in water to male C57BL/6 mice (n = 5). Blood samples were collected via tail bleeding in heparinized tubes at predetermined sampling times on ice, and were stored at -80°C until analysis. Despite the critical problem of obtaining numerous blood samples from a mouse without compromising the health/safety of the animal, blood samples at all the sampling times, i.e. 0.17, 0.5, 1, 3, 5 and 7 hours for the IV dose groups, and 0.5, 1, 3, 5 and 7 hours for the oral dose groups were collected from each mouse. The extraction volume during sample analysis was targeted at the lowest possible volume (20 μl) thereby minimizing the total volume of blood harvested from the animal.
Blood samples collected from mice following the administration of NP046 together with the calibration standards (STDs) and quality controls (QCs) of NP046 were analyzed using a validated LC-MS/MS assay (for details of the LC-MS/MS assay see Additional file 2). Concentration vs time profiles were constructed and using Summit PK software the data were processed to obtain the PK properties of NP046.
Blood samples collected from mice after the administration of NP046, together with the calibration standards (STDs) and quality controls (QCs), were analysed using a fully validated LC-MS/MS assay. NP046 concentrations were detectable for up to seven hours after oral and IV dosing. Concentration vs time profiles (Figures 3 and 4) were constructed and the data processed with Summit PK software (non-compartmental analysis) to obtain the PK parameters as presented in Table 2. The LC-MS/MS method performed very well; NP046 concentrations in the mice were detectable for up to seven hours after both 50 and 10 mg/kg oral dosing, with mean concentrations of 0.05 and 0.02 μM, respectively.

[2] = Plasma protein binding by ultracentrifugation; type: in vitro ADME; conditions: read-out: PPB (plasma protein binding) (converted)
Method: In this study, since the NSB > 5%, ultracentrifugation was used to assess the PPB property of NP046 [for the methodology see Additional file 3]. […] Procedure for the determination of PPB by Ultracentrifugation (procedure was adopted from Barré et al., 1985; with a slight modification). Thaw plasma aliquots in a water bath at 22 °C. Centrifuge plasma aliquots at 2000 g for 5 minutes, and decant and pool the supernatant. Prepare plasma and PBS samples at a high concentration (1000 ng/ml), and low concentration (10 ng/ml) for all the test compounds under investigation. The PBS samples were used to determine the response of the unbound (or free) drug, and were not subjected to ultracentrifugation. Plasma samples were incubated at 37 °C in a water bath for 20minutes to allow samples to reach physiological temperature, and then the samples were aliquoted into BECKMAN Quick-Seal centrifuge tubes (13 ml). Ultracentrifuge plasma samples at 2 x 10^5 g for 6 hours at 37 °C using BECKMAN L8-[…] ultracentrifuge (80Ti). The supernatant was extracted, and its response was compared with that of the PBS extract after being analysed by the validated LC-MS/MS bioanalytical drug assay methods stated in chapters 8 and 9. PPB% was calculated using the equation: Where T = total drug concentration; and F = free drug concentration.

[3] = test system: Caco-2 cell line; test: Caco-2 permeability, apical to basolateral drug transport assay; type: in vitro ADME, human; conditions: transport buffer pH 7.4, LC-MS/MS, experiment repeated with same result
Text: Permeability is the speed/velocity and extent to which a drug passes through a biological membrane obstacle in a living system, such as the gastrointestinal (GI) epithelial cells, the blood capillary wall, the target cell membrane. The Caco-2 cell line (a continuous line of heterogeneous human epithelial colorectal adenocarcinoma cells), the most widely used and recognized as a model of the intestinal barrier was used to determine the in vitro permeability of NP046 [for the methodology see Additional file 6]. The transport of each drug from the apical side to the basolateral side was done using a transport buffer that consisted of Hank’s Balanced Salt Solution (HBSS) + 10 mM HEPES + […] NaHCO3, pH 7.4 (1:100 1 M HEPES in HBSS). The drug transport assay was performed by determining the concentrations of the test compound from the basolateral chamber, using an LC-MS/MS assay. […] Therefore, the experiment was repeated and the same result was obtained. This could be due to the following reasons: IVc. Drug transport assay: The monolayer was rinsed with HBSS Test compounds (200 µl) was added into the apical chambers of the monolayers inserted in a plate containing 600 µl HBSS The plate was placed in a water bath with orbital shaker (60 rpm) for 2 hours at 37 °C Fifty micro litters of the solution were removed from the apical and basolateral wells and analysed using LC-MS method.

[4] = Lipophilicity, Log D by scaled-down shake-flask method (octanol/PBS); type: physicochemical; conditions: pH 7.4, read-out: Log D7.4
Method: Lipophilicity is a compound’s tendency to partition into a non-polar lipid matrix versus an aqueous matrix. It is an important property of a drug which has a significant influence on the drug ADME/tox properties as well as its biological activity. […].
Stock solutions of NP046 and controls in DMSO (10 mM) were prepared and an aliquot of each phase (octanol/PBS) was analysed by an HPLC-Diode array detector (DAD) method. Chromatographic separation was achieved on a Phenomenex® Kinetex C18 (50 × 2.1 mm i.d. 2.6 μm) column with a gradient elution, using mobile phase (A) 5 mM ammonium format-acetonitrile (95:5, v/v) and (B) 5 mM ammonium format-acetonitrile (5:95, v/v). The Log D values were calculated using the analyte peak areas obtained from each phase (Octanol/PBS) according to the following equation [12]: [drawing 2]

[5] = Stability in whole blood (long term, freeze and thaw, on bench); type: in vitro ADME, human; conditions: for Long term stability, mean concentration found: -80°C, 92 days; for On bench stability, mean concentration found: on bench 3.3 hours
Method: Owing to the scarcity of mouse blood, the assay was developed and validated using human whole blood and then cross validated with mice whole blood to ensure that the same results were obtained in the same matrix of both species. NP046 was stable for 100 days in stock solutions of methanol and acetonitrile when stored at room temperature and -20 °C. It was stable in whole blood on bench for 3.3 hours while waiting for extraction, and was stable after three freeze-thaw cycles too.

[6] = male, C57BL/6, whole blood, IV 5 mg/kg, mouse
[7] = male, C57BL/6, whole blood, oral 10 mg/kg, mouse
[8] = male, C57BL/6, whole blood, oral 50 mg/kg, mouse
[9] = whole blood, nominal High (799.9)
[10] = whole blood, nominal Low (4.999)

For `Oc1cc(CCCc2ccc(F)cc2)ccc1CN1CCCCC1` [NP046, 5-(3-(4-fluorophenyl)propyl)-2-(piperidin-1-ylmethyl)phenol], the “AUC 0 - ∞” value ([1]; IV 5 mg/kg, mouse blood) was 248 ± 12.6 µmol·min/L, the half-life ([1]; male, C57BL/6, whole blood, other: oral and IV (range over both), range over oral (50 and 10 mg/kg) and IV (5 mg/kg) groups, mouse, read-out: mean half-life) was 3.1 to 4.4 h and the Vd [1, 6] was 16.9 ± 1.3 L/kg. It also gave a half-life ([1]; male, C57BL/6, whole blood, IV 5 mg/kg, mouse blood, mean ± S.E.M, n = 5, read-out: Apparent t 1/2 (converted)) of 3.2 ± 0.35 h, a clearance ([1]; male, C57BL/6, whole blood, IV 5 mg/kg, mouse, read-out: Blood CL total) of 62.2 ± 3 mL/min/kg and a concentration at 7 h [1, 6] of 140 nM. For the same molecule, the Tmax [1, 7] was 0.8 h, the bioavailability [1, 7] was 6 ± 2.9% and the Cmax ([1]; male, C57BL/6, whole blood, oral 10 mg/kg, mouse blood) was 130 ± 60 nM. It also gave a half-life ([1]; male, C57BL/6, whole blood, oral 10 mg/kg, mouse blood, mean ± S.E.M, n = 5, read-out: Apparent t 1/2 (converted)) of 3.1 ± 0.46 h, a concentration at 7 h [1, 7] of 20 nM and a Tmax [1, 8] of 0.5 h. For the same molecule, the bioavailability [1, 8] was 3.2 ± 0.47%, the Cmax ([1]; male, C57BL/6, whole blood, oral 50 mg/kg, mouse blood) was 470 ± 100 nM and the half-life ([1]; male, C57BL/6, whole blood, oral 50 mg/kg, mouse blood, mean ± S.E.M, n = 5, read-out: Apparent t 1/2 (converted)) was 4.4 ± 0.6 h. The concentration at 7 h [1, 8] was 50 nM, the “AUC 0 - ∞” value ([1]; oral 10 mg/kg, mouse blood, 10 mg/kg) was 30 µmol·min/L and 30 ± 14.7 µmol·min/L and the “AUC 0 - ∞” value ([1]; oral 50 mg/kg, mouse blood, 50 mg/kg) was 80 µmol·min/L and 80 ± 8.8 µmol·min/L. The fraction unbound at 6 h, 10 ng/ml ([2]; at 10 ng/ml) was 0.797, the fraction unbound at 6 h, 1000 ng/ml ([2]; at 1000 ng/ml) was 0.72 and the “test compound found in the basolateral chamber (apical to basolateral transport)” value [3] was “no quantifiable amount”. For the same molecule, the logD [4] was 2.6, the “stability in whole blood on bench” value ([5]; 3.3 hours while waiting for extraction) was “stable” and the “long term matrix stability” value ([5]; whole blood at -80°C for 92 days) was “stable”. The “Long term stability, mean concentration found” value [5, 9] was 732. ng/ml, the “Long term stability, mean concentration found” value [5, 10] was 5.081 ng/mL and the “On bench stability, mean concentration found” value [5, 9] was 716.9 ng/mL. The “On bench stability, mean concentration found” value [5, 10] was 5.370 ng/mL, the “stability after freeze-thaw cycles” value ([5]; whole blood, three freeze-thaw cycles) was “stable” and the “Freeze and thaw stability, mean concentration found” value ([5]; whole blood, three freeze-thaw cycles, nominal High (799.9)) was 718.6 ng/mL. The “Freeze and thaw stability, mean concentration found” value ([5]; whole blood, three freeze-thaw cycles, nominal Low (4.999)) was 5.037 ng/mL.
